Source: PubChem BioAssay (NCI)
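Grown in 96-well plates, cells were treated for 48 hours with each compound at five concentrations. Insufficient inhibition: endpoint recorded as highest concentration tested. Definition used: TGI = concentration required for complete inhibition of growth.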 Where a SMILES comes first, the peptide text is derived from it. [ ]: non-standard residue; d: D form. The star is where a group is joined. Chg = N[CH](C(=O)O)C1CCCCC1; Cbz = O=C(OCc1ccccc1)*; OBn = c1ccc(CO*)cc1

These compounds were tested on NCI-H23 lung (assay: DTP human tumour cell line panel, 48 h).

| SMILES | TGI [µM] |
| --- | --- |
| COC(=O)C(NC(=O)C(CC(=O)OCc1ccccc1)NC(=O)OCc1ccccc1)C1CCCCC1 (configuration not stated) (Cbz-Asp(OBn)-[Chg]-OMe; configuration not given here) | > 100 |
| OC[C@H]1C[C@@H]2Cc3ccccc3N2N1 | > 100 |
| COP(=O)(OC)/C(=C\C1=CN(C(c2ccccc2)(c2ccccc2)c2ccccc2)CN1)NC=O | 36.3 |
| Nc1c(N2CCCCC2)c(=O)nc2[nH]/c(=C\c3ccco3)c(=O)n12 | > 100 |
| Cc1[nH]n(-c2ncc(C#N)c(=O)[nH]2)c(=O)c1CCO | > 100 |

What follows are compounds tested on NCI-H460 lung (assay: DTP human tumour cell line panel, 48 h).

| SMILES | TGI [µM] |
| --- | --- |
| COC(=O)C(NC(=O)C(CC(=O)OCc1ccccc1)NC(=O)OCc1ccccc1)C1CCCCC1 (configuration not stated) (Cbz-Asp(OBn)-[Chg]-OMe; configuration not given here) | > 100 |
| OC[C@H]1C[C@@H]2Cc3ccccc3N2N1 | > 100 |
| COP(=O)(OC)/C(=C\C1=CN(C(c2ccccc2)(c2ccccc2)c2ccccc2)CN1)NC=O | 27 |
| Cc1[nH]n(-c2ncc(C#N)c(=O)[nH]2)c(=O)c1CCO | > 100 |

These compounds were tested on NCI-H522 lung (assay: DTP human tumour cell line panel, 48 h).

| SMILES | TGI [µM] |
| --- | --- |
| COC(=O)C(NC(=O)C(CC(=O)OCc1ccccc1)NC(=O)OCc1ccccc1)C1CCCCC1 (configuration not stated) (Cbz-Asp(OBn)-[Chg]-OMe; configuration not given here) | > 100 |
| OC[C@H]1C[C@@H]2Cc3ccccc3N2N1 | > 100 |
| COP(=O)(OC)/C(=C\C1=CN(C(c2ccccc2)(c2ccccc2)c2ccccc2)CN1)NC=O | 33.5 |
| Nc1c(N2CCCCC2)c(=O)nc2[nH]/c(=C\c3ccco3)c(=O)n12 | > 100 |
| Cc1[nH]n(-c2ncc(C#N)c(=O)[nH]2)c(=O)c1CCO | > 100 |

These compounds were tested on NCI/ADR-RES ovarian (assay: DTP human tumour cell line panel, 48 h).

| SMILES | TGI [µM] |
| --- | --- |
| COC(=O)C(NC(=O)C(CC(=O)OCc1ccccc1)NC(=O)OCc1ccccc1)C1CCCCC1 (configuration not stated) (Cbz-Asp(OBn)-[Chg]-OMe; configuration not given here) | > 100 |
| OC[C@H]1C[C@@H]2Cc3ccccc3N2N1 | > 100 |
| COP(=O)(OC)/C(=C\C1=CN(C(c2ccccc2)(c2ccccc2)c2ccccc2)CN1)NC=O | 29.9 |
| Nc1c(N2CCCCC2)c(=O)nc2[nH]/c(=C\c3ccco3)c(=O)n12 | > 100 |
| Cc1[nH]n(-c2ncc(C#N)c(=O)[nH]2)c(=O)c1CCO | > 100 |

The compounds below were run on OVCAR-3 ovarian (assay: DTP human tumour cell line panel, 48 h).

| SMILES | TGI [µM] |
| --- | --- |
| COC(=O)C(NC(=O)C(CC(=O)OCc1ccccc1)NC(=O)OCc1ccccc1)C1CCCCC1 (configuration not stated) (Cbz-Asp(OBn)-[Chg]-OMe; configuration not given here) | > 100 |
| OC[C@H]1C[C@@H]2Cc3ccccc3N2N1 | > 100 |
| COP(=O)(OC)/C(=C\C1=CN(C(c2ccccc2)(c2ccccc2)c2ccccc2)CN1)NC=O | 29.8 |
| Cc1[nH]n(-c2ncc(C#N)c(=O)[nH]2)c(=O)c1CCO | > 100 |

These compounds were tested on OVCAR-4 ovarian (assay: DTP human tumour cell line panel, 48 h).

| SMILES | TGI [µM] |
| --- | --- |
| COC(=O)C(NC(=O)C(CC(=O)OCc1ccccc1)NC(=O)OCc1ccccc1)C1CCCCC1 (configuration not stated) (Cbz-Asp(OBn)-[Chg]-OMe; configuration not given here) | > 100 |
| OC[C@H]1C[C@@H]2Cc3ccccc3N2N1 | > 100 |
| COP(=O)(OC)/C(=C\C1=CN(C(c2ccccc2)(c2ccccc2)c2ccccc2)CN1)NC=O | 39.6 |
| Nc1c(N2CCCCC2)c(=O)nc2[nH]/c(=C\c3ccco3)c(=O)n12 | > 100 |
| Cc1[nH]n(-c2ncc(C#N)c(=O)[nH]2)c(=O)c1CCO | > 100 |

Each compound was assayed on OVCAR-5 ovarian (assay: DTP human tumour cell line panel, 48 h).

| SMILES | TGI [µM] |
| --- | --- |
| COC(=O)C(NC(=O)C(CC(=O)OCc1ccccc1)NC(=O)OCc1ccccc1)C1CCCCC1 (configuration not stated) (Cbz-Asp(OBn)-[Chg]-OMe; configuration not given here) | > 100 |
| OC[C@H]1C[C@@H]2Cc3ccccc3N2N1 | > 100 |
| COP(=O)(OC)/C(=C\C1=CN(C(c2ccccc2)(c2ccccc2)c2ccccc2)CN1)NC=O | 31.8 |
| Nc1c(N2CCCCC2)c(=O)nc2[nH]/c(=C\c3ccco3)c(=O)n12 | > 100 |
| Cc1[nH]n(-c2ncc(C#N)c(=O)[nH]2)c(=O)c1CCO | > 100 |

The compounds below were run on OVCAR-8 ovarian (assay: DTP human tumour cell line panel, 48 h).

| SMILES | TGI [µM] |
| --- | --- |
| COC(=O)C(NC(=O)C(CC(=O)OCc1ccccc1)NC(=O)OCc1ccccc1)C1CCCCC1 (configuration not stated) (Cbz-Asp(OBn)-[Chg]-OMe; configuration not given here) | > 100 |
| OC[C@H]1C[C@@H]2Cc3ccccc3N2N1 | > 100 |
| COP(=O)(OC)/C(=C\C1=CN(C(c2ccccc2)(c2ccccc2)c2ccccc2)CN1)NC=O | 54.8 |
| Nc1c(N2CCCCC2)c(=O)nc2[nH]/c(=C\c3ccco3)c(=O)n12 | > 100 |
| Cc1[nH]n(-c2ncc(C#N)c(=O)[nH]2)c(=O)c1CCO | > 100 |

The compounds below were run on PC-3 prostate (assay: DTP human tumour cell line panel, 48 h).

| SMILES | TGI [µM] |
| --- | --- |
| COC(=O)C(NC(=O)C(CC(=O)OCc1ccccc1)NC(=O)OCc1ccccc1)C1CCCCC1 (configuration not stated) (Cbz-Asp(OBn)-[Chg]-OMe; configuration not given here) | > 100 |
| OC[C@H]1C[C@@H]2Cc3ccccc3N2N1 | > 100 |
| COP(=O)(OC)/C(=C\C1=CN(C(c2ccccc2)(c2ccccc2)c2ccccc2)CN1)NC=O | 19.7 |
| Cc1[nH]n(-c2ncc(C#N)c(=O)[nH]2)c(=O)c1CCO | > 100 |

These compounds were tested on RPMI-8226 leukemia (assay: DTP human tumour cell line panel, 48 h).

| SMILES | TGI [µM] |
| --- | --- |
| COC(=O)C(NC(=O)C(CC(=O)OCc1ccccc1)NC(=O)OCc1ccccc1)C1CCCCC1 (configuration not stated) (Cbz-Asp(OBn)-[Chg]-OMe; configuration not given here) | > 100 |
| COP(=O)(OC)/C(=C\C1=CN(C(c2ccccc2)(c2ccccc2)c2ccccc2)CN1)NC=O | 39.9 |
| Nc1c(N2CCCCC2)c(=O)nc2[nH]/c(=C\c3ccco3)c(=O)n12 | > 100 |
| Cc1[nH]n(-c2ncc(C#N)c(=O)[nH]2)c(=O)c1CCO | > 100 |

The compounds below were run on RXF 393 renal (assay: DTP human tumour cell line panel, 48 h).

| SMILES | TGI [µM] |
| --- | --- |
| COC(=O)C(NC(=O)C(CC(=O)OCc1ccccc1)NC(=O)OCc1ccccc1)C1CCCCC1 (configuration not stated) (Cbz-Asp(OBn)-[Chg]-OMe; configuration not given here) | > 100 |
| OC[C@H]1C[C@@H]2Cc3ccccc3N2N1 | > 100 |
| Nc1c(N2CCCCC2)c(=O)nc2[nH]/c(=C\c3ccco3)c(=O)n12 | > 100 |
| Cc1[nH]n(-c2ncc(C#N)c(=O)[nH]2)c(=O)c1CCO | > 100 |

These compounds were tested on SF-268 CNS (assay: DTP human tumour cell line panel, 48 h).

| SMILES | TGI [µM] |
| --- | --- |
| COC(=O)C(NC(=O)C(CC(=O)OCc1ccccc1)NC(=O)OCc1ccccc1)C1CCCCC1 (configuration not stated) (Cbz-Asp(OBn)-[Chg]-OMe; configuration not given here) | > 100 |
| OC[C@H]1C[C@@H]2Cc3ccccc3N2N1 | > 100 |
| Nc1c(N2CCCCC2)c(=O)nc2[nH]/c(=C\c3ccco3)c(=O)n12 | > 100 |
| Cc1[nH]n(-c2ncc(C#N)c(=O)[nH]2)c(=O)c1CCO | > 100 |

These compounds were tested on SF-295 CNS (assay: DTP human tumour cell line panel, 48 h).

| SMILES | TGI [µM] |
| --- | --- |
| COC(=O)C(NC(=O)C(CC(=O)OCc1ccccc1)NC(=O)OCc1ccccc1)C1CCCCC1 (configuration not stated) (Cbz-Asp(OBn)-[Chg]-OMe; configuration not given here) | > 100 |
| OC[C@H]1C[C@@H]2Cc3ccccc3N2N1 | > 100 |
| COP(=O)(OC)/C(=C\C1=CN(C(c2ccccc2)(c2ccccc2)c2ccccc2)CN1)NC=O | 30.2 |
| Nc1c(N2CCCCC2)c(=O)nc2[nH]/c(=C\c3ccco3)c(=O)n12 | > 100 |
| Cc1[nH]n(-c2ncc(C#N)c(=O)[nH]2)c(=O)c1CCO | > 100 |

Each compound was assayed on SF-539 CNS (assay: DTP human tumour cell line panel, 48 h).

| SMILES | TGI [µM] |
| --- | --- |
| COC(=O)C(NC(=O)C(CC(=O)OCc1ccccc1)NC(=O)OCc1ccccc1)C1CCCCC1 (configuration not stated) (Cbz-Asp(OBn)-[Chg]-OMe; configuration not given here) | > 100 |
| OC[C@H]1C[C@@H]2Cc3ccccc3N2N1 | > 100 |
| Nc1c(N2CCCCC2)c(=O)nc2[nH]/c(=C\c3ccco3)c(=O)n12 | > 100 |
| Cc1[nH]n(-c2ncc(C#N)c(=O)[nH]2)c(=O)c1CCO | > 100 |

Each compound was assayed on SK-MEL-2 melanoma (assay: DTP human tumour cell line panel, 48 h).

| SMILES | TGI [µM] |
| --- | --- |
| COC(=O)C(NC(=O)C(CC(=O)OCc1ccccc1)NC(=O)OCc1ccccc1)C1CCCCC1 (configuration not stated) (Cbz-Asp(OBn)-[Chg]-OMe; configuration not given here) | > 100 |
| OC[C@H]1C[C@@H]2Cc3ccccc3N2N1 | > 100 |
| COP(=O)(OC)/C(=C\C1=CN(C(c2ccccc2)(c2ccccc2)c2ccccc2)CN1)NC=O | 30.4 |
| Cc1[nH]n(-c2ncc(C#N)c(=O)[nH]2)c(=O)c1CCO | > 100 |
